Here are results for three compounds from US20210254138A1, “SIALIC ACID TRANSPORTER PROTEINS AS BIOMARKERS AND DRUG TARGETS” (Quadram Institute Bioscience, priority 2018, published 2021).

Data set [1] concerns CC(=O)N[C@H]1[C@H]([C@H](O)[C@H](O)CO)OC(O)(C(=O)O)C[C@@H]1O. As to the kind of experiment: purified protein, by the assay type. The conditions noted are these: other: substrate of RgNanA; Michaelis-Menten fit; pH 7.0.
Experimental: Aldolase cleavage was measured by monitoring the decrease in absorbance at 340 nm (A340 nm) as NADH is converted to NAD by lactate dehydrogenase in a coupled reaction where pyruvate is released from sialic acid by the aldolase. Reactions were performed in a 100 μl volume with final concentrations of 150 μM NADH (Sigma, St Louis, USA), 0.5 U LDH (Sigma, St Louis, USA), 10 mM sialic acid (Neu5Ac or 2,7-anhydro-Neu5Ac) and 1.5 μg purified RgNanA or EcNanA (E. coli aldolase CAS: 9027-60-5, Carbosynth, UK) in 50 mM Na-phosphate buffer (pH 7.0). The reactions were performed at 37° C. and monitored using FLUOstar OPTIMA (BMG LABTECH). For kinetics experiments, the sialic acid concentration was varied at 20, 10, 5, 4, 2, 1, 0.4, 0.2, 0.1 mM and the initial rate of reaction determined for each concentration in triplicate before analysis was performed by fitting the data to a Michaelis-Menten using Graph Pad Prism (V 5.03).
The substrate specificity of RgNanA was determined using a coupled activity assay where pyruvate released during the conversion of sialic acid to ManNAc is converted to lactate by a lactate dehydrogenase and the subsequent loss of absorbance at 340 nm measured as NADH is converted to NAD^+. A commercially available E. coli sialic acid aldolase (EcNanA) was included as a control and enzymes were tested for activity against 2,7-anhydro-Neu5Ac and Neu5Ac. […] The kinetic parameters of RgNanA were determined by calculating the initial rate of reaction with increasing Neu5Ac concentrations. A Michaelis-Menten curve was fitted to the data and kinetic parameters determined (FIG. 7b).
The subject of data set [2] is R. gnavus ATCC 29149 wild-type. As to the kind of experiment: Growth on sole carbon source, wild-type strain. In kind it is cell-based. The conditions noted are these: 11.1 mM in YCFA, anaerobic. The protocol:
R. gnavus ATCC 29149 was routinely grown in an anaerobic cabinet (Don Whitley, Shipley, UK) in BHI-YH as previously described (Crost et al., 2013). Growth on single carbon sources utilized anaerobic basal YCFA medium (Duncan et al., 2002) supplemented with 11.1 mM of specific mono- or oligosaccharides (2,7-anhydro-Neu5Ac, 3'Sialyllactose (3'SL) or glucose). The bacteria were grown to late exponential phase for RNA extraction, the culture was performed in 14 ml tubes. Growth was determined spectrophotometrically by monitoring changes in optical density at […] compared to the same medium without bacterium (ΔOD595 nm) hourly for 10 hours.
(§1) The ability of the mutants to utilise sialic acids and sialoconjugates was assessed by supplementing YCFA with 11.1 mM of 2,7-anhydro-Neu5Ac, 3'SL, glucose or Neu5Ac in triplicate 200 μl cultures in 96-well microtiter plates. The OD595 nm was measured hourly for 10 h in an infinite F50 plate reader (Tecan, UK) housed within an anaerobic cabinet connected to Magellan V7.0 software.

Data set [3] concerns R. gnavus ATCC 29149 nan deletion mutants. As to the kind of experiment: Growth on sole carbon source, nan deletion mutants. The data set is classed as cell-based. The conditions noted are these: 11.1 mM in YCFA, anaerobic.
Excerpt: R. gnavus mutants were generated using the ClosTron methodology (Heap et al., 2010), which inserts an erythromycin resistance cassette into the gene of interest. Target sites were identified using the Pertuka method (Perutka et al., 2004). The re-targeted introns were synthesised and ligated into the pMTL007C-E2 vector by ATUM (MenloPark, USA). The plasmids were then transformed into E. coli CA434 using the heat-shock protocol, and the recombinant clones selected for chloramphenicol resistance. Recombinant E. coli cells were grown overnight in 10 ml LB, 1 ml of the overnight culture was pelleted and washed with PBS. The E. coli cell pellet was resuspended in 200 μl of an R. gnavus overnight culture and the cell suspension spotted onto a non-selective BHI-YH plate. […]
as §1

Data set [4] deals with RgSBP (RUMGNA_02698); solute-binding protein of the sialic acid ABC transporter, full-length excluding the signal sequence (residues 1-29), N-terminal His-tag …. As to the kind of experiment: Isothermal titration calorimetry (ITC) of 2,7-anhydro-Neu5Ac binding to RgSBP (FIG. 4A). The following applies: 50 mM Tris-HCl pH 7.5, cell protein 100 μM, syringe ligand 2 mM, single-binding site model. Further details: species or system Ruminococcus gnavus ATCC 29149. From the text: The Nan cluster in R. gnavus ATCC 29149 is predicted to encode a putative sialic acid transporter of the SAT2 family, with RUMGNA_02698 predicted to be a solute binding protein (SBP) and RUMGNA_02697 and 02696 predicted to be two permeases (Crost et al., 2013; 2016). To determine the ligand specificity of R. gnavus SBP protein (RgSBP), the corresponding gene was amplified by PCR from the R. gnavus ATCC 29149 genome, cloned and heterologously expressed in E. coli and the His6-tag recombinant protein purified by immobilised metal ion affinity chromatography (IMAC).
The affinity of the interaction between RgSBP and sialic acid ligands was further assessed by ITC.
The full-length RgSBP excluding the signal sequence (residues 1-29), the full length RgNanA and full length RUMGNA_02695 were amplified from R. gnavus ATCC 29149 gDNA, and cloned into the pHISTEV expression system, introducing a His-tag at the N terminus using primers listed in Table S1. DNA manipulation was carried out in E. coli DH5α cells. […] Protein purification was assessed by standard SDS-polyacrylamide gel electrophoresis using NuPAGE Novex 4-12% Bis-Tris gels (Life Technologies, Paisley, UK). Protein concentration was measured with NanoDrop 1000 UV-Vis
Spectrophotometer (Thermo Fischer Scientific, Wilmington, Del.) and using the extinction coefficient calculated by Protparam (ExPASy-Artimo, 2012) from the peptide sequence. […]
A general note: In ITC the heat of successive injections is recorded.

For “RgNanA (RUMGNA_02692, sialic acid aldolase) (Mediterraneibacter gnavus ATCC 29149)”, in data set [1], the Michaelis constant (Km) was 1473 ± 98 µM and the turnover number (kcat) is 2.757 ± 0.033 s⁻¹. On to `CC(=O)N[C@H]1[C@H]([C@H](O)[C@H](O)CO)O[C@@](O[C@H]2[C@@H](O)[C@@H](CO)O[C@@H](O[C@H]3[C@H](O)[C@@H](O)C(O)O[C@@H]3CO)[C@@H]2O)(C(=O)O)C[C@@H]1O` (some centres unmarked) [3'SL, 3'-sialyllactose], for which the “utilisation as a sole carbon source (growth)” value in data set [2] is listed as “able to utilise”. Besides, the “growth on substrate as sole carbon source” value in data set [3] is “no growth was detected”. As to `CC(=O)NC1C(O)CC2(C(=O)O)OC(C(O)CO)C1O2` (centres unmarked) [2,7-anhydro-Neu5Ac], the affinity in data set [4], expressed as Kd, was 2240 nM.

In general, Km refers to the concentration of substrate that gives half-maximal velocity. What is called kcat is the maximal rate divided by the concentration of active sites. What is called Kd is the concentration at which binding is half-saturated. A high value points to a looser complex.
